The text below walks through data of patent US7659293B2, “α-Amino-N-hydroxy-acetamide derivatives” (Novartis AG, priority 2001, dated 2010).

In this assay the target is T1, MMP1 (collagenase 1) (Homo sapiens, UniProt P03956).
T1 construct: made in house; host or cells: mouse C127 cells, vector pBPV-MMT, secreted into culture medium
T1 sequence (P03956 100-469): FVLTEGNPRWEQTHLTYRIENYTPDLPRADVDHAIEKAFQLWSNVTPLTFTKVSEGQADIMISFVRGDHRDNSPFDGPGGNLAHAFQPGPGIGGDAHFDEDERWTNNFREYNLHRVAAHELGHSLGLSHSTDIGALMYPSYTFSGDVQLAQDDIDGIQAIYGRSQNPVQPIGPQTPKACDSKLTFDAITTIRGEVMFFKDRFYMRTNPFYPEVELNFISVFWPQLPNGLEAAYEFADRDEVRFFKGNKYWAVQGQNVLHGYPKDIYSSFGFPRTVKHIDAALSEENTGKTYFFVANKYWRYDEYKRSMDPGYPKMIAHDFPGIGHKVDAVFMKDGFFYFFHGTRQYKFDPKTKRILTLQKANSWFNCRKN
The assay can be described thus: MMP1 (collagenase 1) fluorogenic substrate inhibition assay. In kind it is biochemical. Particulars: mean ± SEM of three independent experiments. How it is done:
The inhibitory activities of compounds of formula I on MT1-MMP, MMP1 (collagenase 1) and MMP2 (gelatinase A) can be determined as follows:
Stock solutions of substrate (MCA-Pro-Leu-Gly-Leu-Dpa-Ala-Arg-NH2 (SEQ ID NO: 1), C. G. Knight, et al, FEBS lett., 296, 263-266, (1992)), are prepared in 100% DMSO at a concentration 1.0 mM.
Stock solutions of inhibitors are prepared in 100% DMSO. The inhibitor is diluted into the assays from a solution in 100% DMSO, and controls substitute an equal volume of DMSO so that the final DMSO concentration from inhibitor and substrate dilutions in all assays is 6.0%. Assays are performed in assay buffer (150 mM NaCl, 10 mM CaCl2, 50 mM Tris-Cl pH7.5, 0.05% Brij-35) containing 6.0% DMSO once the substrate and inhibitor are diluted into it. […] The fluorescence changes are monitored using an excitation wavelength of 320 nm and an emission wavelength of 340 nm. […] The reaction mixture is preincubated with the inhibitor for 30 min, the reaction is started by the addition of MMP enzyme and the fluorescence intensity is measured for 10 min. […]
C127 cells (ATCC-mouse mammary tumor cell line) are grown in Dulbecco's Modified Essential Medium supplemented with 10% heat inactivated fetal bovine serum and 1× antibiotic-antimycotic solution at 37° C. in a humidified CO2 incubator. […] Media from selected clones are analyzed for collagenase expression by an enzymatic assay. […]

Counter-ions that a name gives are not always drawn.

The IC50 is the concentration that inhibits the measured activity by half. In turn, `CN(C)c1ccc(CN(CC(=O)NO)S(=O)(=O)c2ccc(OCC3CC3)cc2)cc1` [Example 2, 2-[(4-Cyclopropylmethoxy-benzenesulfonyl)-(4-dimethylamino-benzyl-amino]-N-hydroxy-acetamide HCl salt] showed a half-inhibitory concentration (IC50) of 1770 ± 144 nM.
